From US20050238642A1, “Modified bouganin proteins, cytotoxins and methods and uses thereof” (priority 2004, published 2005)

B1: VB6-845: cytotoxin: Fab version of an anti-Ep-CAM scFv antibody linked to Bou156 at the C-terminus of the CH domain via a furin linker (protein)
chain 1: EVQLVQSGPGLVQPGGSVRISCAASGYTFTNYGMNWVKQAPGKGLEWMGWINTYTGESTYADSFKGRFTFSLDTSASAAYLQINSLRAEDTAVYYCARFAIKGDYWGQGTLLTVSSASTKGPSVFPLAPSSKSTSGGTAALGCLVKDYFPEPVTVSWNSGALTSGVHTFPAVLQSSGLYSLSSVVTVPSSSLGTQTYICNVNHKPSNTKVDKKVEPKSCTRHRQPRGWEQLYNTVSFNLGEAYEYPTFIQDLRNELAKGTPVCQLPVTLQTIADDKRFVLVDITTTSKKTVKVAIDVTDVYVVGYQDKWDGKDRAVFLDKVPTVATSKLFPGVTNRVTLTFDGSYQKLVNAAKADRKALELGVNKLEFSIEAIHGKTINGQEAAKFFLIVIQMVSEAARFKYIETEVVDRGLYGSFKPNFKVLNLENNWGDISDAIHKSSPQCTTINPALQLISPSNDPWVVNKVSQISPDMGILKFKSSK
chain 2: HHHHHHDIQMTQSPSSLSASVGDRVTITCRSTKSLLHSNGITYLYWYQQKPGKAPKLLIYQMSNLASGVPSRFSSSGSGTDFTLTISSLQPEDFATYYCAQNLEIPRTFGQGTKVELKRTVAAPSVFIFPPSDEQLKSGTASVVCLLNNFYPREAKVQWKVDNALQSGNSQESVTEQDSKDSTYSLSSTLTLSKADYEKHKVYACEVTHQGLSSPVTKSFNRGEC

Key:
NIH:OVCAR-3 = test: MTS cytotoxicity assay; assay type: cell-based; conditions: Ep-CAM-positive NIH:OVCAR-3, MTS, 5 days
Method: The MTS assay used to measure potency was conducted using standard technique known in the art, and as more fully described below in Example 8. […] In the case of VB6-845-CL-de-bouganin, the potency was measured at 1 to 2 nM for CAL 27 and 0.6 to 0.7 nM versus NIH:OVCAR-3.
(§1) The MTS assay was preformed using standard techniques known in the art. More particularly, 50 microlitres of cells (2×10^4 cells/ml) were seeded per well and plates were incubated at 37° C. under 5% CO2 for 2 hr. Then 50 microlitres of spiked drug (i.e. construct to be tested or control) was added to the culture medium at increasing concentrations. Culture medium, with or without cells, was used as positive and negative controls, respectively. The plates were left at 37° C. under 5% CO2 for 5 days. At day 5, the inhibition of cell proliferation was evaluated by adding 20 microlitres of MTS reagent (Promega, Cat# G5430). The plates were further incubated at 37° C. under 5% CO2 for 2 hr and ODs were read at 490 nm using the plate reader spetrophotometer. Background values were subtracted from the sample values obtained for each concentration and the results were expressed as a percent of viable cells. The IC50 values for each drug were calculated for each cell line.

A-375 = test: MTS cytotoxicity assay; assay type: cell-based; conditions: Ep-CAM-negative A-375, MTS, 5 days
Method: as §1

DAUDI = test: MTS cytotoxicity assay; assay type: cell-based; conditions: Ep-CAM-negative DAUDI, 5 days
Method: as §1

HMEC = test: MTS cytotoxicity assay; assay type: cell-based, human; conditions: Ep-CAM-negative HMEC, 5 days
Method: The tumour cell lines used in this study were purchase from ATCC and were propagated following ATCC's recommendations except for the cell lines C-41, TOV-112D which were grown in RPMI 1640 or DMEM supplemented with 10% FCS, respectively. Tumor cells were harvested at 60-70% confluence with viability over 90%. The human normal mammary epithelial cells (HMEC) were purchased from CAMBREX and maintained in specified media according to the procedure provided by CAMBREX. The cells were harvested at 70% confluence with viability over 90%.
as §1

[1] = tested on: PBMCs (peripheral blood mononuclear cells) from naive donors; test: Naive human T-cell proliferation assay (3H-thymidine incorporation, stimulation index); assay type: cell-based; conditions: for presence of T cell epitope: compilation of 20 donors, 1 μM and 5 μM; for responsive donors: of 20 donor PBMC samples
Method: Accordingly, in the present studies, 89 synthetic 15-mer peptides (as listed in Table 1) were used in T-cell proliferation assays with PBMCs (peripheral blood mononuclear cells) from naive donors (i.e. no known sensitization to bouganin). 20 donor PBMC samples were selected to achieve an optimal coverage of MHC class II allotypes. PBMCs were stimulated with individual peptides in triplicate cultures for 7 days before proliferation was assessed by ^3H-thymidine incorporation. All peptides were diluted at two different concentrations: 1 μM and 5 μM. The stimulation indices (SI) were calculated as the amount of ^3H incorporated into the cells, divided by the amount of ^3H incorporated in mock-stimulated controls.
The peptides were used in T-cell proliferation assays with PBMCs (peripheral blood mononuclear cells) from naive donors (i.e. no known sensitization to bouganin). 20 donor PBMC were selected to get an optimal coverage of MHC class II allotypes. The allotypic coverage is in excess of 85%.
PBMCs were stimulated with individual peptides in triplicate cultures for 7 days before proliferation was assessed by ^3H-thymidine (^3H-Thy) incorporation. All peptides were tested at two different concentrations (1 μM and 5 μM). Stimulation indices (S.I.) were calculated as the amount of ^3H incorporated, divided by the amount of ^3H incorporated in mock-stimulated control cells.
Buffy coats from human blood stored for less than 12 hours were obtained from the National Blood Service (Addenbrooks Hospital, Cambridge, UK). Ficoll-paque was obtained from Amersham Pharmacia Biotech (Amersham, UK). Serum free AIM V media for the culture of primary human lymphocytes and containing L-glutamine, 50 μg/ml streptomycin, 10 μg/ml gentomycin and 0.1% human serum albumin was from Gibco-BRL (Paisley, UK). Synthetic peptides were obtained from Eurosequence (Groningen, The Netherlands) and Babraham Technix (Cambridge, UK).
Erythrocytes and leukocytes were separated from plasma and platelets by gentle centrifugation of buffy coats. The top phase (containing plasma and platelets) was removed and discarded. Erythrocytes and leukocytes were diluted 1:1 in phosphate buffered saline (PBS) before layering onto 15 ml ficoll-paque (Amersham Pharmacia, Amersham UK). Centrifugation was done according to the manufacturers recommended conditions and PBMCs were harvested from the serum+PBS/ficoll paque interface. PBMCs were mixed with PBS (1:1) and collected by centrifugation. The supernatant was removed and discarded and the PBMC pellet resuspended in 50ml PBS. Cells were again pelleted by centrifugation and the PBS supernatant discarded. Cells were resuspended using 50 ml AIM V media and at this point counted and viability assessed using trypan blue dye exclusion. Cells were again collected by centrifugation and the supernatant discarded. Cells were resuspended for cryogenic storage at a density of 3×10^7 per ml. The storage medium was 90% (v/v) heat inactivated AB human serum (Sigma, Poole, UK) and 10% (v/v) DMSO (Sigma, Poole, UK). Cells were transferred to a regulated freezing container (Sigma) and placed at −70° C. overnight. When required for use, cells were thawed rapidly in a water bath at 37° C. before transferring to 10ml pre-warmed AIM V medium.
PBMC were stimulated with protein and peptide antigens in a 96 well flat bottom plate at a density of 2×10^5 PBMC per well. PBMC were incubated for 7 days at 37° C. before pulsing with ^3H-Thy (Amersham-Pharmacia, Amersham, UK). […] C-32=sequence […] from Flu haemagglutinin residues 307-319 (SEQ ID NO:127). C-49=sequence […] from Chlamydia HSP 60 (SEQ ID NO:128).
Peptides were dissolved in DMSO to a final concentration of 10 mM, these stock solutions were then diluted 1/500 in AIM V media (final concentration 20 μM). Peptides were added to a flat bottom 96 well plate to give a final concentration of 1 and 5 μM in 100 μl. […]

Molecule | IC50 (NIH:OVCAR-3; Homo sapiens, 120 h) [nM] | IC50 (A-375; Homo sapiens, 120 h) [nM] | IC50 (DAUDI; Homo sapiens, 120 h) [nM] | IC50 (HMEC; Homo sapiens, 120 h) [nM] | IC50 (A-375) [nM] | IC50 (DAUDI) [nM] | IC50 (HMEC) [nM] | other results
O=P1(N(CCCl)CCCl)NCCCO1 (stereo not drawn) [Cyclophosphamide] | > 1000 | > 1000 | > 1000 | > 1000 |  |  |  | 
N.N.O=C([O-])C1(C(=O)[O-])CCC1.[Pt+2] [Carboplatin] |  |  |  |  | > 1000 | > 1000 | > 1000 | IC50 (NIH:OVCAR-3): > 1000 nM
YKLEFSIEAIHGKTI [compound 45, bouganin 15-mer peptide, first amino acid 133] |  |  |  |  |  |  |  | T cell proliferation (in words) ([1]; compared with peptide 44): lower level T cell proliferation
NGQEIAKFFLIVIQM [peptide 50, bouganin 15-mer peptide, first amino acid 148] |  |  |  |  |  |  |  | presence of T cell epitope [1]: T cell epitopes; S.I. (stimulation index) ([1]; donor 4): 2.9; S.I. (stimulation index) ([1]; donor 14): 2.0; responsive donors [1]: 2
CC[C@@]1(O)C(=O)OCc2c1cc1n(c2=O)Cc2cc3c(CN(C)C)c(O)ccc3nc2-1 [Topotecan] | 0.071 | 1.5 | 0.009 | 4.1 |  |  |  | 
AKVDRKDLELGVYKL [peptide 41, bouganin 15-mer peptide, first amino acid 121] |  |  |  |  |  |  |  | presence of T cell epitope [1]: T cell epitopes; S.I. (stimulation index) ([1]; donor 4, peptide at 5 μM): 3.6; S.I. (stimulation index) ([1]; donor 5, peptide at 5 μM): 4.9; S.I. (stimulation index) ([1]; donor 10, peptide at 5 μM): 2.1; S.I. (stimulation index) ([1]; donor 11, peptide at 5 μM): 2.0; responsive donors [1]: four
COc1cc([C@@H]2c3cc4c(cc3[C@@H](O[C@@H]3O[C@@H]5CO[C@@H](C)O[C@H]5[C@H](O)[C@H]3O)[C@H]3COC(=O)[C@H]23)OCO4)cc(OC)c1O [Etoposide] | 210 | 280 | 1.7 | 600 |  |  |  | 
N.N.[Cl][Pt][Cl] [Cisplatin] |  |  |  |  | > 1000 | > 1000 | > 1000 | IC50 (NIH:OVCAR-3): > 1000 nM
O=C(O)CCCc1ccc(N(CCCl)CCCl)cc1 [Chlorambucil] | > 1000 | > 1000 | > 1000 | > 1000 |  |  |  | 
CN(Cc1cnc2nc(N)nc(N)c2n1)c1ccc(C(=O)N[C@@H](CCC(=O)O)C(=O)O)cc1 [Methotrexate] | > 1000 | 6 | 3.6 | 41 |  |  |  | 
CO[C@@]12[C@H](COC(N)=O)C3=C(C(=O)C(C)=C(N)C3=O)N1C[C@@H]1N[C@@H]12 [Mitomycin C] |  |  |  |  | 14 | 2.8 | 50 | IC50 (NIH:OVCAR-3): 28 nM
Cc1c(N)nc([C@H](CC(N)=O)NC[C@H](N)C(N)=O)nc1C(=O)N[C@H](C(=O)N[C@H](C)[C@@H](O)[C@H](C)C(=O)N[C@H](C(=O)NCCc1nc(-c2nc(C(=O)NCCCNCCCCN)cs2)cs1)[C@@H](C)O)[C@@H](O[C@@H]1O[C@@H](CO)[C@@H](O)[C@H](O)[C@@H]1O[C@@H]1O[C@H](CO)[C@@H](O)[C@H](OC(N)=O)[C@@H]1O)c1cnc[nH]1 [Bleomycin A5] |  |  |  |  | 290 | 130 | 1000 | IC50 (NIH:OVCAR-3): 150 nM
Bleomycin Sulfate |  |  |  |  | 170 | 22 | 600 | IC50 (NIH:OVCAR-3): 30 nM
CCc1c2c(nc3ccc(OC(=O)N4CCC(N5CCCCC5)CC4)cc13)-c1cc3c(c(=O)n1C2)COC(=O)[C@]3(O)CC [Irinotecan] | 180 | 900 | 190 | 1000 |  |  |  | 
O=c1[nH]cc(F)c(=O)[nH]1 [Fluorouracil] | > 1000 | > 1000 | > 1000 | > 1000 |  |  |  | 
LGVYKLEFSIEAIHG [peptide 44, bouganin 15-mer peptide, first amino acid 130] |  |  |  |  |  |  |  | presence of T cell epitope [1]: T cell epitopes; S.I. (stimulation index) ([1]; donor 4): 3.5; S.I. (stimulation index) ([1]; donor 11): 2.3; responsive donors [1]: two
COc1cccc2c1C(=O)c1c(O)c3c(c(O)c1C2=O)C[C@@](O)(C(=O)CO)C[C@@H]3O[C@H]1C[C@H](N)[C@H](O)[C@H](C)O1 [Doxorubicin] | 3 | 2.8 |  | 16 |  |  |  | 
B1 |  |  |  |  | > 1000 | > 1000 | 220 | 
